Like-named read-outs stand apart in the source and are kept apart here.
Columns and labels:
Format in all cases: cell-based
[1] = test system: African green monkey kidney cells Vero; test: Cell viability test (Resazurin), Vero cells
Procedure: (§1) Cell viability was determined with Resazurin (at a final concentration of 25 μg/mL).

[2] = test system: human breast cancer cells MDA-MB-231; test: Cell viability test (Resazurin), MDA-MB-231 cells; set-up: evaluation of ability to inhibit cell growth activity (IC50): scale not given here
Procedure: as §1

[3] = test system: human Glioblastoma cells U87-MG; test: Cell viability test (Resazurin), U87-MG cells; set-up: evaluation of ability to inhibit cell growth activity (IC50): scale not given here
Procedure: as §1

[4] = test system: human breast cancer cells MDA-MB-468; test: Cell viability test (Resazurin), MDA-MB-468 cells
Procedure: as §1

[5] = test system: human liver cancer cells Mahlavu; test: Cell viability test (Resazurin), Mahlavu cells
Procedure: as §1

[6] = test system: human lung cancer cells A549; test: Cell viability test (Resazurin), A549 cells
Procedure: as §1

[7] = test system: human colorectal cancer cells SW-480; test: Cell viability test (Resazurin), SW480 cells; set-up: evaluation of ability to inhibit cell growth activity (IC50): scale not given here
Procedure: as §1

[8] = test system: human leukemia cells U937; test: Cell viability test (Resazurin), U937 cells
Procedure: as §1

[9] = Chlorocebus sabaeus, Vero, 48 h, 0.1% FCS, Resazurin, read-out: inhibitory concentrations of cell growth activity IC50
[10] = Chlorocebus sabaeus, Vero, grade of the IC50 of Table 2, read-out: evaluation of ability to inhibit cell growth activity (IC50)
[11] = Homo sapiens, MDA-MB-231, 48 h, MDA-MB-231 cells, 48 hours, 0.1% FCS, Resazurin, read-out: inhibitory concentrations of cell growth activity IC50
[12] = Homo sapiens, MDA-MB-231, MDA-MB-231 cells, grade of the IC50 of Table 2, read-out: evaluation of ability to inhibit cell growth activity (IC50)
[13] = Homo sapiens, U-87 MG, 48 h, 0.1% FCS, Resazurin, read-out: inhibitory concentrations of cell growth activity IC50
[14] = Homo sapiens, U-87 MG, grade of the IC50 of Table 2, read-out: evaluation of ability to inhibit cell growth activity (IC50)
[15] = MDA-MB-468 cells, 48 hours, 0.1% FCS, Resazurin, read-out: inhibitory concentrations of cell growth activity IC50
[16] = MDA-MB-468 cells, grade of the IC50 of Table 2, read-out: evaluation of ability to inhibit cell growth activity (IC50)
[17] = Homo sapiens, Mahlavu, 48 h, 0.1% FCS, Resazurin, read-out: inhibitory concentrations of cell growth activity IC50
[18] = Homo sapiens, Mahlavu, grade of the IC50 of Table 2, read-out: evaluation of ability to inhibit cell growth activity (IC50)
[19] = Homo sapiens, A549, 48 h, A549 cells, 48 hours, 0.1% FCS, Resazurin, read-out: inhibitory concentrations of cell growth activity IC50
[20] = Homo sapiens, A549, A549 cells, grade of the IC50 of Table 2, read-out: evaluation of ability to inhibit cell growth activity (IC50)
[21] = Homo sapiens, SW480, 48 h, SW480 cells, 48 hours, 0.1% FCS, Resazurin, read-out: inhibitory concentrations of cell growth activity IC50
[22] = Homo sapiens, SW480, SW480 cells, grade of the IC50 of Table 2, read-out: evaluation of ability to inhibit cell growth activity (IC50)
[23] = Homo sapiens, U-937, U937 cells, grade of the IC50 of Table 2, read-out: evaluation of ability to inhibit cell growth activity (IC50)
[24] = U937 cells, 48 hours, 0.1% FCS, Resazurin, read-out: inhibitory concentrations of cell growth activity IC50
[25] = Homo sapiens, MDA-MB-468, MDA-MB-468 cells, grade of the IC50 of Table 2, read-out: evaluation of ability to inhibit cell growth activity (IC50)
[26] = U937 cells, grade of the IC50 of Table 2, read-out: evaluation of ability to inhibit cell growth activity (IC50)
[27] = 48 hours, 0.1% FCS, Resazurin, read-out: inhibitory concentrations of cell growth activity IC50
[28] = grade of the IC50 of Table 2, read-out: evaluation of ability to inhibit cell growth activity (IC50)
[29] = MDA-MB-231 cells, 48 hours, 0.1% FCS, Resazurin, read-out: inhibitory concentrations of cell growth activity IC50
[30] = MDA-MB-231 cells, grade of the IC50 of Table 2, read-out: evaluation of ability to inhibit cell growth activity (IC50)
[31] = A549 cells, 48 hours, 0.1% FCS, Resazurin, read-out: inhibitory concentrations of cell growth activity IC50
[32] = A549 cells, grade of the IC50 of Table 2, read-out: evaluation of ability to inhibit cell growth activity (IC50)
[33] = SW480 cells, 48 hours, 0.1% FCS, Resazurin, read-out: inhibitory concentrations of cell growth activity IC50
[34] = SW480 cells, grade of the IC50 of Table 2, read-out: evaluation of ability to inhibit cell growth activity (IC50)
[35] = U937 cells, grade of the IC50 of Table 2

SMILES	IC50 [1, 9] [µM]	IC50 [1, 10] [µM]	IC50 [4, 15] [µM]	IC50 [4, 16] [µM]	IC50 [5, 17] [µM]	IC50 [5, 18] [µM]	IC50 [6, 20] [µM]	IC50 [8, 24] [µM]	IC50 [8, 26] [µM]	IC50 [1, 27] [µM]	IC50 [2, 29] [µM]	IC50 [2, 30] [µM]	IC50 [3, 27] [µM]	IC50 [3, 28] [µM]	IC50 [5, 27] [µM]	IC50 [5, 28] [µM]	IC50 [6, 31] [µM]	IC50 [6, 32] [µM]	IC50 [7, 33] [µM]	IC50 [7, 34] [µM]	other results
CO[C@@H]1O[C@]23C=C[C@@H]4[C@@]1(CC[C@]1(C)[C@@H]([C@H](C)C/C=C/C(C)(C)OC)CC[C@@]41C)[C@@H]2CC[C@H](O)C3(C)C [Compound 15]	> 256	> 256	> 256	> 256	> 256	> 256	> 256	4.28	–	–	–	–	–	–	–	–	–	–	–	–	IC50 [2, 11]: > 256 µM; IC50 [2, 12]: > 256 µM; IC50 [3, 13]: > 256 µM; IC50 [3, 14]: > 256 µM; IC50 [6, 19]: > 256 µM; IC50 [7, 21]: > 256 µM; IC50 [7, 22]: > 256 µM; IC50 [8, 23]: < 8 µM
COC1O[C@]23C=C[C@@H]4[C@@]1(CC[C@]1(C)[C@@H]([C@H](C)C[C@H](C=C(C)C)OC)CC[C@@]41C)[C@@H]2CC[C@H](O)C3(C)C (stereo partly drawn) [Compound 16]	> 256	> 256	–	–	> 256	> 256	> 256	97.9	64 to 256	–	–	–	–	–	–	–	–	–	–	–	IC50 [2, 11]: > 256 µM; IC50 [2, 12]: > 256 µM; IC50 [3, 13]: > 256 µM; IC50 [3, 14]: > 256 µM; IC50 ([4]; Homo sapiens, MDA-MB-468, 48 h, MDA-MB-468 cells, 48 hours, 0.1% FCS, Resazurin, read-out: inhibitory concentrations of cell growth activity IC50): > 256 µM; IC50 [4, 25]: > 256 µM; IC50 [6, 19]: > 256 µM; IC50 [7, 21]: > 256 µM; IC50 [7, 22]: > 256 µM
COC1O[C@]23C=C[C@@H]4[C@@]1(CC[C@]1(C)[C@@H]([C@H](C)C/C=C/C(C)(C)OC)CC[C@@]41C)[C@@H]2CC[C@H](O)C3(C)C (stereo partly drawn) [Compound 17]	–	–	9.4	–	–	–	–	12.2	–	> 256	> 256	> 256	> 256	> 256	> 256	> 256	> 256	> 256	> 256	> 256	IC50 [1, 28]: > 256 µM; evaluation of ability to inhibit cell growth activity (IC50) ([4]; MDA-MB-468 cells, grade of the IC50 of Table 2): ◯; evaluation of ability to inhibit cell growth activity (IC50) [8, 35]: ◯
CO[C@H]1O[C@]23C=C[C@@H]4[C@@]1(CC[C@]1(C)[C@@H]([C@H](C)C[C@H](C=C(C)C)OC)CC[C@@]41C)[C@@H]2CC[C@H](O)C3(C)C [Compound 18]	–	–	> 256	> 256	–	–	–	> 256	> 256	> 256	> 256	> 256	> 256	> 256	> 256	> 256	> 256	> 256	> 256	> 256	IC50 [1, 28]: > 256 µM
COC1O[C@]23C=C[C@@H]4[C@@]1(CC[C@]1(C)[C@@H]([C@H](C)C/C=C/C(C)(C)O)CC[C@@]41C)[C@@H]2CC[C@H](O)C3(C)C (stereo partly drawn) [Compound 19]	–	16 to 64	24.4	16 to 64	20.7	16 to 64	16 to 64	11.9	–	36.1	22.6	16 to 64	25	16 to 64	–	–	45.6	–	–	16 to 64	IC50 [7, 21]: 16.6 µM; IC50 [8, 23]: 8 to 16 µM; evaluation of ability to inhibit cell growth activity (IC50) [8, 35]: ◯
CO[C@H]1O[C@]23C=C[C@@H]4[C@@]1(CC[C@]1(C)[C@@H]([C@H](C)C/C=C/C(C)(C)O)CC[C@@]41C)[C@@H]2CC[C@H](O)C3(C)C [Compound 20]	–	–	6.9	–	–	–	–	4.33	< 8	12.5	10.4	–	12.2	–	19.7	16 to 64	20.1	16 to 64	12.6	–	evaluation of ability to inhibit cell growth activity (IC50) ([1]; grade of the IC50 of Table 2): ◯; IC50 [2, 12]: 8 to 16 µM; evaluation of ability to inhibit cell growth activity (IC50) ([2]; MDA-MB-231 cells, grade of the IC50 of Table 2): ◯; IC50 [3, 14]: 8 to 16 µM; evaluation of ability to inhibit cell growth activity (IC50) ([3]; grade of the IC50 of Table 2): ◯; IC50 [4, 25]: < 8 µM; IC50 [7, 22]: 8 to 16 µM; evaluation of ability to inhibit cell growth activity (IC50) ([7]; SW480 cells, grade of the IC50 of Table 2): ◯
COC1O[C@]23C=C[C@@H]4[C@@]1(CC[C@]1(C)[C@@H]([C@H](C)C[C@@H](O)C=C(C)C)CC[C@@]41C)[C@@H]2CC[C@H](O)C3(C)C (stereo partly drawn) [Compound 21]	> 256	> 256	35.4	16 to 64	> 256	> 256	> 256	–	–	–	–	64 to 256	83.5	64 to 256	–	–	–	–	118	64 to 256	IC50 [2, 11]: 130 µM; IC50 [6, 19]: > 256 µM; IC50 ([8]; Homo sapiens, U-937, 48 h, U937 cells, 48 hours, 0.1% FCS, Resazurin, read-out: inhibitory concentrations of cell growth activity IC50): 6.19 µM; IC50 [8, 23]: < 8 µM
CO[C@@H]1O[C@]23C=C[C@@H]4[C@@]1(CC[C@]1(C)[C@@H]([C@H](C)C[C@@H](O)C=C(C)C)CC[C@@]41C)[C@@H]2CC[C@H](O)C3(C)C [Compound 22]	–	–	> 256	> 256	–	–	–	6.17	< 8	> 256	> 256	> 256	> 256	> 256	> 256	> 256	> 256	> 256	> 256	> 256	IC50 [1, 28]: > 256 µM

Source: patent publication US10344049B2, “Substituted steroids for the treatment of cancer” (AQUAVAN TECHNOLOGY CO., LTD., priority 2017, dated 2019)
